{
  "source": "patent US20230132982A1",
  "about": "“USE OF PYRIDO[1,2-A]PYRIMIDINONE COMPOUND IN TREATING LYMPHOMA” (priority 2020, published 2023)",
  "format_in_all_cases": "in vivo, human",
  "key": {"[1]": {"system": "relapsed or refractory FL", "assay": "Clinical trial in relapsed or refractory follicular lymphoma (Example 4)", "method": "(§1) Method of administration: orally administered once daily, 20 mg each time, with 28 consecutive days of administration as one cycle. Drug: tablet of the compound of formula I, 5 mg or 20 mg. […] The efficacy was evaluated according to the revised evaluation criteria of the Lugano conference, 2014 edition. Primary evaluation indexes of efficacy: objective response rate (ORR), i.e., (CR+PR cases)/total cases, including cases of complete response (CR) and partial response (PR). Secondary evaluation indexes of efficacy: progression-free survival (PFS), overall survival (OS), disease control rate (DCR) and duration of response (DOR)."}, "[2]": {"system": "relapsed/refractory mantle cell lymphoma", "assay": "Clinical trial in relapsed/refractory mantle cell lymphoma (Example 3)", "method": "as §1"}, "[3]": {"system": "relapsed or refractory lymphoma", "assay": "Clinical trial of tablets of the compound of formula I in relapsed or refractory lymphoma (Example 2)", "parameters": "key to Best efficacy: “Small SD” means that at the time of efficacy evaluation, a lesion shrinks in size compared with a baseline level, but does not meet the criteria for PR", "method": "Drug: tablet of the compound of formula I, 1 mg or 5 mg. 2.2 Enrollment Criteria • 1) Unambiguously diagnosed as relapsed or refractory lymphoma by pathology and/or cytology; • 2) Has at least one measurable target lesion other than brain lesions confirmed by imaging in screening phase (evaluated according to the evaluation criteria revised by the Lugano conference, 2014 edition); • 3) Aged 18-75 years; • 4) ECOG (PS) score ≤1; • 5) Expected survival time ≥3 months; • 6) Main organ functions in the screening phase meet the following criteria: Criteria for blood routine examination (no growth factor used or no blood transfusion conducted within 7 days): • Absolute value of neutrophil count (ANC)≥1.5×10^9/L; • Platelet (PLT)≥75×10^9/L; hemoglobin (Hb)≥90 g/L; Criteria for blood biochemical examination: • Alanine transaminase (ALT) and aspartate transferase (AST)≤1.5×ULN (for patients with tumor liver metastasis, ≤3×ULN); • Glycosylated hemoglobin (HbA1c)≤8.5%; • Lipase≤1.5×ULN; • Serum total bilirubin≤1.5×ULN; • Serum creatinine (Cr)≤1.5×ULN; • 7) Doppler ultrasound evaluation: left ventricular ejection fraction (LVEF)≥lower limit of normal (50%); • 8) Female subjects should agree to take contraceptive measures (such as intrauterine devices [IUD], contraceptives or condoms) during the study and for 6 months after the study; serum or urine pregnancy test results should be negative within 7 days before enrollment, and the subjects must not be breastfeeding; male subjects should agree to take contraceptive measures during the study and for 6 months after the study; and • 9) Voluntary participation, written informed consent and good compliance. The efficacy was evaluated according to the revised evaluation criteria of the Lugano conference, 2014 edition. Primary evaluation indexes of efficacy: objective response rate (ORR), i.e., (CR+PR cases)/total cases, including cases of complete response (CR) and partial response (PR). Secondary evaluation indexes of efficacy: progression-free survival (PFS), overall survival (OS), disease control rate (DCR) and duration of response (DOR)."}, "[4]": {"system": "Chronic lymphocytic leukemia/small lymphocytic lymphoma", "assay": "Clinical trial in small lymphocytic lymphoma or chronic lymphocytic leukemia (Example 6)", "conditions": "20 mg orally once daily, 28-day cycle", "method": "as §1, with “evaluated with reference” for “evaluated according”, “to IWCLL2008” for “to the revised”, “criteria and the evaluation criteria revised by” for “criteria of”"}, "[5]": {"system": "relapsed/refractory diffuse large B-cell lymphoma (DLBCL)", "assay": "Clinical trial in relapsed/refractory diffuse large B-cell lymphoma (Example 5)", "conditions": "20 mg orally once daily, 21-day cycle", "method": "as §1, with “21” for “28”"}, "[6]": {"conditions": "20 mg QD dose group, 20 patients"}, "[7]": {"conditions": "22 lymphoma patients enrolled, 18 evaluable for efficacy"}, "[8]": {"conditions": "Tumor type Lymphoma, 43 patients"}, "[9]": {"conditions": "overall conclusion of the trial"}, "[10]": {"conditions": "patient R1009, DLBCL, 10 mg/qd, administration cycle C7D28"}, "[11]": {"conditions": "patient R1018, FL, 20 mg/bid, administration cycle C2D28"}, "[12]": {"conditions": "patient R2008, FL, 10 mg/bid, administration cycle C2D3"}},
  "data": [
    {"smiles": "COc1ncc(-c2ccc3ncc(OCCN(C)C)c(=O)n3c2)cc1NS(=O)(=O)c1ccc(F)cc1Cl", "note": "[compound of formula I]", "values": [
      {"measurement": "safety in treatment", "setting": "[1]; 20 mg orally once daily", "result": "good safety"},
      {"measurement": "therapeutic effect on follicular lymphoma", "setting": "[1]; 20 mg orally once daily", "result": "good therapeutic effect"},
      {"measurement": "CR", "setting": "[1]; 20 patients with follicular lymphoma, 20 mg orally once daily (2 cases)", "result": 10.0, "unit": "%"},
      {"measurement": "ORR", "setting": "[1]; 20 patients with follicular lymphoma, 20 mg orally once daily (14 cases)", "result": 70, "unit": "%"},
      {"measurement": "safety in treatment", "setting": "[2]; 20 mg orally once daily", "result": "good safety"},
      {"measurement": "therapeutic effect on mantle cell lymphoma", "setting": "[2]; 20 mg orally once daily", "result": "good therapeutic effect"},
      {"measurement": "CR", "setting": "[2]; 21 patients with mantle cell lymphoma, 20 mg orally once daily (2 cases)", "result": 9.5, "unit": "%"},
      {"measurement": "ORR", "setting": "[2]; 21 patients with mantle cell lymphoma, 20 mg orally once daily (16 cases)", "result": 76, "unit": "%"},
      {"measurement": "patients reached ORR", "setting": "[2]; of the 7 patients previously treated with a BTK inhibitor", "result": "Five"},
      {"measurement": "ORR", "setting": "[3]; 10 mg/qd and higher-dose group (11/15), 22 patients enrolled", "result": 73, "unit": "%"},
      {"measurement": "adverse event, a grade 3 hyperglycemia", "setting": "[3]; [6]", "result": 1, "unit": "case"},
      {"measurement": "overall safety and tolerance", "setting": "[3]; [6]", "result": "good overall safety and tolerance"},
      {"measurement": "ORR", "setting": "[3]; 20 mg/qd group (4/4), 22 patients enrolled", "result": 100, "unit": "%"},
      {"measurement": "patients achieved CR (best efficacy)", "setting": "[3]; [7]", "result": 2, "unit": "patients"},
      {"measurement": "patients achieved PR (best efficacy)", "setting": "[3]; [7]", "result": 9, "unit": "patients"},
      {"measurement": "ORR", "setting": "[3]; 35 lymphoma patients enrolled, 31 evaluated for efficacy (22/31)", "result": 71, "unit": "%"},
      {"measurement": "major grade 3 adverse event and dose-limiting toxicity (DLT) associated with study drugs", "setting": "[3]; 35 lymphoma patients enrolled, controlled and returned to baseline by withdrawal of drug or symptom-oriented treatment", "result": "hyperglycemia"},
      {"measurement": "ORR", "setting": "[3]; 50 lymphoma patients enrolled, 43 evaluated for efficacy (28/43)", "result": 65, "unit": "%"},
      {"measurement": "ORR, n (%)", "setting": "[3]; Tumor type CLL, 2 patients", "result": "2 (100%) n (%)"},
      {"measurement": "CR, n (%)", "setting": "[3]; Tumor type DLBCL, 8 patients", "result": "2 (25.0%) n (%)"},
      {"measurement": "ORR, n (%)", "setting": "[3]; Tumor type DLBCL, 8 patients", "result": "4 (50.0%) n (%)"},
      {"measurement": "CR, n (%)", "setting": "[3]; Tumor type FL, 20 patients", "result": "2 (10.0%) n (%)"},
      {"measurement": "ORR, n (%)", "setting": "[3]; Tumor type FL, 20 patients", "result": "15 (75%) n (%)"},
      {"measurement": "CR, n (%)", "setting": "[3]; [8]", "result": "4 (9.3%) n (%)"},
      {"measurement": "ORR, n (%)", "setting": "[3]; [8]", "result": "28 (65%) n (%)"},
      {"measurement": "ORR, n (%)", "setting": "[3]; Tumor type MCL, 5 patients", "result": "5 (100%) n (%)"},
      {"measurement": "CR, n (%)", "setting": "[3]; Tumor type NHL, 41 patients", "result": "4 (9.8%) n (%)"},
      {"measurement": "ORR, n (%)", "setting": "[3]; Tumor type NHL, 41 patients", "result": "28 (68%) n (%)"},
      {"measurement": "Best efficacy", "setting": "[3]; all the two follicular lymphoma patients in the 20 mg/qd group", "result": "achieved PR"},
      {"measurement": "Best efficacy", "setting": "[3]; all the two mantle cell lymphoma patients, relapsed or refractory after BTK inhibitor treatment", "result": "achieved PR"},
      {"measurement": "ORR", "setting": "[3]; follicular lymphoma (FL), 10 mg/qd and higher-dose group (6/8)", "result": 75, "unit": "%"},
      {"measurement": "safety", "setting": "[3]; [9]", "result": "good safety"},
      {"measurement": "therapeutic effect on lymphoma", "setting": "[3]; [9]", "result": "good therapeutic effect"},
      {"measurement": "Change in lesion", "setting": "[3]; patient R1006, FL, 10 mg/qd, administration cycle C5D28", "result": "−84.0", "unit": "%"},
      {"measurement": "Best efficacy", "setting": "[3]; [10]", "result": "Small SD"},
      {"measurement": "Change in lesion", "setting": "[3]; [10]", "result": "−37.5", "unit": "%"},
      {"measurement": "Best efficacy", "setting": "[3]; [11]", "result": "Small SD"},
      {"measurement": "Change in lesion", "setting": "[3]; [11]", "result": "−33.0", "unit": "%"},
      {"measurement": "Change in lesion", "setting": "[3]; patient R2006, DLBCL, 10 mg/qd, administration cycle C3D28", "result": "−100.0", "unit": "%"},
      {"measurement": "Best efficacy", "setting": "[3]; [12]", "result": "Small SD"},
      {"measurement": "Change in lesion", "setting": "[3]; [12]", "result": "−42.0", "unit": "%"},
      {"measurement": "Change in lesion", "setting": "[3]; patient R2009, MCL, 10 mg/bid, administration cycle C3D28", "result": "−71.0", "unit": "%"},
      {"measurement": "Change in lesion", "setting": "[3]; patient R2011, FL, 20 mg/bid, administration cycle C1D14", "result": "−94.0", "unit": "%"},
      {"measurement": "safety in treatment", "setting": "[4]", "result": "good safety"},
      {"measurement": "treatment effect on small lymphocytic lymphoma or chronic lymphocytic leukemia", "setting": "[4]", "result": "good treatment effect"},
      {"measurement": "safety in treatment", "setting": "[5]", "result": "good safety"},
      {"measurement": "therapeutic effect on diffuse large B-cell lymphoma", "setting": "[5]", "result": "good therapeutic effect"}
    ]}
  ]
}
